≈ marks a conversion by molar mass, not a printed value. Starred links: 1 amine or outer side, 2 acyl side, 3 side chain; linkers in the order of their positions; H or OH if unused. Positions of bridges follow the written chain, without caps; N, C: chain ends. Residues, ends and D or L forms follow the SMILES beside them. 2,2'Bipyridine(5,5'-diCH2) = c1cc(-c2ccc(C[*:2])cn2)ncc1C[*:1]; Naphthalene(2,6-diCH2) = c1cc2cc(C[*:2])ccc2cc1C[*:1]; mXylylene = c1cc(C[*:1])cc(C[*:2])c1; pXylylene = c1cc(C[*:2])ccc1C[*:1]; X1 = C(=CC[*:2])C[*:1]

Data set [1] deals with Acinetobacter baumannii (A. baumannii). It is filed as cell-based. The note with it: microbroth dilution, 20-24 hours at 37° C. How it is done:
(§1) Antimicrobial Activity Assay: The following microbroth dilution protocol was adapted from CLSI to determine the minimum inhibitory concentration (MIC) of StAMPs. Briefly, Mueller-Hinton broth (MHB) or cation-adjusted Mueller-Hinton broth (MHB II) was prepared and autoclaved. Then, a colony of bacterial cells was picked and grown overnight in broth at 37° C. and then diluted and allowed to grow again for 3-4 hours. Serial dilutions of peptide stocks in water (10 μl) were prepared using clear round-bottom polypropylene 96-well plates. Then 90 μl of bacteria in broth was added to give a final inoculum of 5×10^5 CFU/ml. The plates were then covered with porous tape to reduce evaporation and incubated for 20-24 hours at 37° C. The MIC was the minimum peptide concentration at which no visible bacterial growth was observed.

Data set [2] relates to Escherichia coli (E. coli). It is filed as cell-based. The note with it: microbroth dilution, 20-24 hours at 37° C. How it is done:
as §1

In data set [3] the test system is Klebsiella pneumoniae (K. pneumoniae). Format: cell-based. The settings on record: microbroth dilution, 20-24 hours at 37° C. How it is done:
as §1

The subject of data set [4] is Pseudomonas aeruginosa (P. aeruginosa). Format: cell-based. The note with it: microbroth dilution, 20-24 hours at 37° C. How it is done:
as §1

Data set [5] deals with Staphylococcus aureus (S. aureus). Format: cell-based. The note with it: microbroth dilution, 20-24 hours at 37° C. How it is done: as §1
The nature of data set [6]: 48 hours cytotoxicity assay (CellTiter-Glo), liver toxicity. Format: cell-based, human. Summed up:
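HepG2 cells in EMEM with 10% FBS, allowed to attach 4 h, then exposed to serially diluted StAMPs or vehicle for 48 h at 37 °C. Viability read by CellTiter-Glo luminescence.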

The nature of data set [7]: 90 minute cytotoxicity assay (LDH release), renal toxicity. It is filed as cell-based. The method in brief:
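RPTEC plated overnight, given fresh medium, then exposed to serial peptide dilutions or vehicle for 90 min at 37° C. Medium LDH measured by 10 min reagent incubation and absorbance at 490 nm.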

Where [8] appears, read: 48 hours of incubation, CellTiter-Glo, read-out: Inhibitory Concentration at 50% Cytotoxicity (IC50) Human Liver Cells (HepG2).

For `CC[C@H](C)[C@H](NC(=O)CN)C(=O)N[C@@H](Cc1ccccc1)C(=O)N[C@@H](CO)C(=O)N[C@@H](CCCCN)C(=O)N[C@@H](CC(C)C)C(=O)N[C@@H](C)C(=O)NCC(=O)N[C@H]1CSCc2ccc(nc2)-c2ccc(cn2)CSC[C@@H](C(=O)N[C@@H](CO)C(=O)NCC(=O)N[C@@H](CC(C)C)C(=O)N[C@@H](CCCCN)C(=O)NCC(N)=O)NC(=O)[C@H](CC(C)C)NC(=O)[C@H](CC(C)C)NC(=O)[C@H](CC(N)=O)NC(=O)[C@H](CCCCN)NC(=O)[C@H]([C@@H](C)CC)NC(=O)[C@H](CCCCN)NC1=O` [compound 71] (H-GIFSKLAGCKIKNLLCSGLKG-NH2; linker 9-16 via 2,2'Bipyridine(5,5'-diCH2); N-terminus assumed), the “Minimum Inhibitory Concentration (MIC) A. baumannii” value in data set [1] was 32 µg/mL. The “Minimum Inhibitory Concentration (MIC) E. coli” value in data set [2] was 64 µg/mL. In addition, the “Minimum Inhibitory Concentration (MIC) K. pneumoniae” value in data set [3] is more than 64 µg/mL. Further, the “Minimum Inhibitory Concentration (MIC) P. aeruginosa” value in data set [4] is more than 64 µg/mL. Also, the “Minimum Inhibitory Concentration (MIC) S. aureus” value in data set [5] is more than 64 µg/mL. Moreover, the IC50 in data set [6] (setting [8]) stood at 360 µg/mL (≈ 155 µM).
As for `CC[C@H](C)[C@H](NC(=O)CN)C(=O)N[C@@H](Cc1ccccc1)C(=O)N[C@@H](CO)C(=O)N[C@@H](CCCCN)C(=O)N[C@@H](CC(C)C)C(=O)N[C@H]1CSCC=CCSC[C@@H](C(=O)N[C@@H](CCCCN)C(=O)N[C@@H](CC(N)=O)C(=O)N[C@@H](CC(C)C)C(=O)N[C@@H](CC(C)C)C(=O)N[C@H](C(=O)N[C@@H](CO)C(=O)NCC(=O)N[C@@H](CC(C)C)C(=O)N[C@@H](CCCCN)C(=O)NCC(=O)N[C@@H](C)C(=O)N[C@@H](CCCCN)C(=O)O)[C@@H](C)CC)NC(=O)[C@H](CCCCN)NC(=O)[C@H](CCCCN)NC(=O)CNC1=O` [compound 100] (H-GIFSKLCGKKCKNLLISGLKGAK-OH; linker 7-11 via X1), in data set [1], the “Minimum Inhibitory Concentration (MIC) A. baumannii” value is 16 µg/mL. Also, the “Minimum Inhibitory Concentration (MIC) E. coli” value in data set [2] stood at 32 µg/mL. For the same compound, the “Minimum Inhibitory Concentration (MIC) K. pneumoniae” value in data set [3] was more than 64 µg/mL. The “Minimum Inhibitory Concentration (MIC) P. aeruginosa” value in data set [4] was more than 64 µg/mL. The “Minimum Inhibitory Concentration (MIC) S. aureus” value in data set [5] is more than 64 µg/mL. Moreover, the IC50 in data set [6] (setting [8]) was more than 200 µg/mL.
For the compound `CC[C@H](C)[C@H](NC(=O)CN)C(=O)N[C@@H](Cc1ccccc1)C(=O)N[C@@H](CO)C(=O)N[C@@H](CCCCN)C(=O)N[C@@H](CC(C)C)C(=O)N[C@@H](C)C(=O)NCC(=O)N[C@@H](CCCCN)C(=O)N[C@@H](CCCCN)C(=O)N[C@H](C(=O)N[C@@H](CCCCN)C(=O)N[C@H]1CSCc2ccc3cc(ccc3c2)CSC[C@@H](C(=O)NCC(N)=O)NC(=O)[C@H](CC(C)C)NC(=O)CNC(=O)[C@H](CO)NC(=O)[C@H]([C@@H](C)CC)NC(=O)[C@H](CC(C)C)NC(=O)[C@H](CC(C)C)NC1=O)[C@@H](C)CC` [compound 82] (H-GIFSKLAGKKIKCLLISGLCG-NH2; linker 13-20 via Naphthalene(2,6-diCH2); N-terminus assumed), the “Minimum Inhibitory Concentration (MIC) A. baumannii” value in data set [1] is 4 µg/mL. In data set [2], the “Minimum Inhibitory Concentration (MIC) E. coli” value stood at 4 µg/mL. The “Minimum Inhibitory Concentration (MIC) K. pneumoniae” value in data set [3] was found to be 8 µg/mL. Besides, in data set [4], the “Minimum Inhibitory Concentration (MIC) P. aeruginosa” value was 32 µg/mL. Further, in data set [5], the “Minimum Inhibitory Concentration (MIC) S. aureus” value was more than 64 µg/mL. For the same compound, the IC50 in data set [6] (setting [8]) was 23 µg/mL (≈ 10 µM).
`CC[C@H](C)[C@H](NC(=O)CN)C(=O)N[C@@H](Cc1ccccc1)C(=O)N[C@@H](CO)C(=O)N[C@@H](CCCCN)C(=O)N[C@@H](CC(C)C)C(=O)N[C@@H](C)C(=O)NCC(=O)N[C@@H](CCCCN)C(=O)N[C@@H](CCCCN)C(=O)N[C@H](C(=O)N[C@@H](CCCCN)C(=O)N[C@H]1CSCc2ccc(cc2)CSC[C@@H](C(=O)NCC(=O)N[C@@H](CC(C)C)C(=O)N[C@@H](CCCCN)C(=O)NCC(N)=O)NC(=O)[C@H]([C@@H](C)CC)NC(=O)[C@H](CC(C)C)NC(=O)[C@H](CC(C)C)NC1=O)[C@@H](C)CC` [compound 24] (H-GIFSKLAGKKIKCLLICGLKG-NH2; linker 13-17 via pXylylene; N-terminus assumed): the IC50 came to 54 µg/mL (≈ 23.6 µM) in data set [7] and 103 µg/mL (≈ 44.9 µM) in data set [6].
The corresponding values for `CC[C@H](C)[C@H](NC(=O)[C@H](CC(C)C)NC(=O)[C@H](CC(C)C)NC(=O)[C@H](CC(N)=O)NC(=O)[C@H](CCCCN)NC(=O)[C@@H](NC(=O)[C@H](CCCCN)NC(=O)[C@H](CCCCN)NC(=O)CNC(=O)[C@H](C)NC(=O)[C@H](CC(C)C)NC(=O)[C@@H]1CSCC=CCSC[C@H](N)C(=O)N[C@@H]([C@@H](C)CC)C(=O)N[C@@H](Cc2ccccc2)C(=O)N[C@@H](CO)C(=O)N1)[C@@H](C)CC)C(=O)N[C@@H](CO)C(=O)NCC(=O)N[C@@H](CC(C)C)C(=O)N[C@@H](CCCCN)C(=O)NCC(N)=O` [compound 38] (H-CIFSCLAGKKIKNLLISGLKG-NH2; linker 1-5 via X1; N-terminus assumed) are more than 200 µg/mL and more than 200 µg/mL.
The like results for `CC[C@H](C)[C@H](NC(=O)CN)C(=O)N[C@@H](Cc1ccccc1)C(=O)N[C@@H](CO)C(=O)N[C@@H](CCCCN)C(=O)N[C@@H](CC(C)C)C(=O)N[C@@H](C)C(=O)NCC(=O)N[C@@H](CCCCN)C(=O)N[C@@H](CCCCN)C(=O)N[C@H](C(=O)N[C@@H](CCCCN)C(=O)N[C@H]1CSCc2cccc(c2)CSC[C@@H](C(=O)NCC(=O)N[C@@H](CC(C)C)C(=O)N[C@@H](CCCCN)C(=O)NCC(N)=O)NC(=O)[C@H]([C@@H](C)CC)NC(=O)[C@H](CC(C)C)NC(=O)[C@H](CC(C)C)NC1=O)[C@@H](C)CC` [compound 23] (H-GIFSKLAGKKIKCLLICGLKG-NH2; linker 13-17 via mXylylene; N-terminus assumed) were, in that order, 52 µg/mL (≈ 22.7 µM) and 97 µg/mL (≈ 42.3 µM).
Consider `CC[C@H](C)[C@H](NC(=O)CN)C(=O)N[C@@H](Cc1ccccc1)C(=O)N[C@H]1CSCC=CCSC[C@@H](C(=O)N[C@@H](CCCCN)C(=O)N[C@@H](CCCCN)C(=O)N[C@H](C(=O)N[C@@H](CCCCN)C(=O)N[C@@H](CC(N)=O)C(=O)N[C@@H](CC(C)C)C(=O)N[C@@H](CC(C)C)C(=O)N[C@H](C(=O)N[C@@H](CO)C(=O)NCC(=O)N[C@@H](CC(C)C)C(=O)N[C@@H](CCCCN)C(=O)NCC(N)=O)[C@@H](C)CC)[C@@H](C)CC)NC(=O)[C@H](C)NC(=O)[C@H](CC(C)C)NC(=O)[C@H](CCCCN)NC1=O` [compound 7] (H-GIFCKLACKKIKNLLISGLKG-NH2; linker 4-8 via X1; N-terminus assumed), for which the IC50 stood at 62 µg/mL (≈ 27 µM) in data set [7] and 51 µg/mL (≈ 22.2 µM) in data set [6].
With `CC[C@H](C)[C@H](NC(=O)CN)C(=O)N[C@@H](Cc1ccccc1)C(=O)N[C@@H](CO)C(=O)N[C@@H](CCCCN)C(=O)N[C@@H](CC(C)C)C(=O)N[C@@H](C)C(=O)NCC(=O)N[C@@H](CCCCN)C(=O)N[C@@H](CCCCN)C(=O)N[C@H](C(=O)N[C@@H](CCCCN)C(=O)N[C@H]1CSCC=CCSC[C@@H](C(=O)NCC(=O)N[C@@H](CC(C)C)C(=O)N[C@@H](CCCCN)C(=O)NCC(N)=O)NC(=O)[C@H]([C@@H](C)CC)NC(=O)[C@H](CC(C)C)NC(=O)[C@H](CC(C)C)NC1=O)[C@@H](C)CC` [compound 25] (H-GIFSKLAGKKIKCLLICGLKG-NH2; linker 13-17 via X1; N-terminus assumed), the IC50 came out at 200 µg/mL (≈ 89.2 µM) in data set [7] and 141 µg/mL (≈ 62.9 µM) in data set [6].
Consider `CC[C@H](C)[C@H](NC(=O)CN)C(=O)N[C@@H](Cc1ccccc1)C(=O)N[C@H]1CSCc2ccc(cc2)CSC[C@@H](C(=O)N[C@@H](CCCCN)C(=O)N[C@@H](CCCCN)C(=O)N[C@H](C(=O)N[C@@H](CCCCN)C(=O)N[C@@H](CC(N)=O)C(=O)N[C@@H](CC(C)C)C(=O)N[C@@H](CC(C)C)C(=O)N[C@H](C(=O)N[C@@H](CO)C(=O)NCC(=O)N[C@@H](CC(C)C)C(=O)N[C@@H](CCCCN)C(=O)NCC(N)=O)[C@@H](C)CC)[C@@H](C)CC)NC(=O)[C@H](C)NC(=O)[C@H](CC(C)C)NC(=O)[C@H](CCCCN)NC1=O` [compound 6] (H-GIFCKLACKKIKNLLISGLKG-NH2; linker 4-8 via pXylylene; N-terminus assumed), for which the IC50 in data set [7] worked out at 15 µg/mL (≈ 6.39 µM); in data set [6], 25 µg/mL (≈ 10.6 µM).
The corresponding values for `CC[C@H](C)[C@H](NC(=O)CN)C(=O)N[C@@H](Cc1ccccc1)C(=O)N[C@@H](CO)C(=O)N[C@@H](CCCCN)C(=O)N[C@@H](CC(C)C)C(=O)N[C@@H](C)C(=O)NCC(=O)N[C@H]1CSCC=CCSC[C@@H](C(=O)N[C@@H](CC(C)C)C(=O)N[C@@H](CC(C)C)C(=O)N[C@H](C(=O)N[C@@H](CO)C(=O)NCC(=O)N[C@@H](CC(C)C)C(=O)N[C@@H](CCCCN)C(=O)NCC(N)=O)[C@@H](C)CC)NC(=O)[C@H](CCCCN)NC(=O)[C@H]([C@@H](C)CC)NC(=O)[C@H](CCCCN)NC1=O` [compound 43] (H-GIFSKLAGCKIKCLLISGLKG-NH2; linker 9-13 via X1; N-terminus assumed) are more than 200 µg/mL and more than 200 µg/mL.

The values are drawn from patent US20240391965A1, “STAPLED ANTIMICROBIAL PEPTIDES (STAMPS) AND USES THEREOF” (Lytica Therapeutics, Inc., priority 2021, published 2024).
